Experimental data published in ChEMBL document CHEMBL3046957, “Synthesis of new oxadiazole derivatives as anti-inflammatory, analgesic, and antimicrobial agents” (2013).

What was measured:
Assay type in all cases: functional
Aspergillus niger [1] = assay: Antifungal activity against Aspergillus niger assessed as growth inhibition at 50 ug/mL after 24 hr by cup-plate method; details: read-out: DIZ
Mus musculus [2] = assay: Analgesic activity in Swiss albino Mus musculus (mouse) assessed as latency time of heat-induced paw licking/jumping behaviour at 10 mg/kg after 2 hr by Eddy's hot plate method (reference value: 4.86 +/- 0.18 secs)
Candida albicans [3] = assay: Antifungal activity against Candida albicans assessed as growth inhibition at 100 ug/mL after 24 hr by cup-plate method; details: read-out: DIZ
Escherichia coli [4] = assay: Antibacterial activity against Escherichia coli assessed as growth inhibition at 100 ug/mL after 24 to 48 hr by cup-plate method; details: read-out: DIZ
Mus musculus [5] = assay: Analgesic activity in Swiss albino Mus musculus (mouse) assessed as latency time of heat-induced paw licking/jumping behaviour at 10 mg/kg after 4 hr by Eddy's hot plate method (reference value: 4.57 +/- 0.11 secs)
Staphylococcus aureus [6] = assay: Antibacterial activity against Staphylococcus aureus assessed as growth inhibition at 50 ug/mL after 24 to 48 hr by cup-plate method; details: read-out: DIZ
Mus musculus [7] = assay: Analgesic activity in Swiss albino Mus musculus (mouse) assessed as latency time of heat-induced paw licking/jumping behaviour at 10 mg/kg after 1 hr by Eddy's hot plate method (reference value: 4.74 +/- 0.21 secs)
Staphylococcus aureus [8] = assay: Antibacterial activity against Staphylococcus aureus assessed as growth inhibition at 100 ug/mL after 24 to 48 hr by cup-plate method; details: read-out: DIZ
Rattus norvegicus [9] = assay: Anti-inflammatory activity in Wistar albino Rattus norvegicus (rat) assessed as inhibition of carrageenan-induced paw edema at 10 mg/kg, po administered 30 min prior to carrageenan challenge measured after 1.5 hr by plethysmometric analysis relative to untreated control
Rattus norvegicus [10] = assay: Anti-inflammatory activity in Wistar albino Rattus norvegicus (rat) assessed as inhibition of carrageenan-induced paw edema at 10 mg/kg, po administered 30 min prior to carrageenan challenge measured after 0.5 hr by plethysmometric analysis relative to untreated control
Candida albicans [11] = assay: Antifungal activity against Candida albicans assessed as growth inhibition at 50 ug/mL after 24 hr by cup-plate method; details: read-out: DIZ
Rattus norvegicus [12] = assay: Anti-inflammatory activity in Wistar albino Rattus norvegicus (rat) assessed as inhibition of carrageenan-induced paw edema at 10 mg/kg, po administered 30 min prior to carrageenan challenge measured after 2 hr by plethysmometric analysis relative to untreated control
Escherichia coli [13] = assay: Antibacterial activity against Escherichia coli assessed as growth inhibition at 50 ug/mL after 24 to 48 hr by cup-plate method; details: read-out: DIZ
Rattus norvegicus [14] = assay: Anti-inflammatory activity in Wistar albino Rattus norvegicus (rat) assessed as inhibition of carrageenan-induced paw edema at 10 mg/kg, po administered 30 min prior to carrageenan challenge measured after 1 hr by plethysmometric analysis relative to untreated control
Bacillus subtilis [15] = assay: Antibacterial activity against Bacillus subtilis assessed as growth inhibition at 50 ug/mL after 24 to 48 hr by cup-plate method; details: read-out: DIZ
Aspergillus niger [16] = assay: Antifungal activity against Aspergillus niger assessed as growth inhibition at 100 ug/mL after 24 hr by cup-plate method; details: read-out: DIZ
Rattus norvegicus [17] = assay: Anti-inflammatory activity in Wistar albino Rattus norvegicus (rat) assessed as inhibition of carrageenan-induced paw edema at 10 mg/kg, po administered 30 min prior to carrageenan challenge measured after 3 hr by plethysmometric analysis relative to untreated control
Pseudomonas aeruginosa [18] = assay: Antibacterial activity against Pseudomonas aeruginosa assessed as growth inhibition at 100 ug/mL after 24 to 48 hr by cup-plate method; details: read-out: DIZ
Pseudomonas aeruginosa [19] = assay: Antibacterial activity against Pseudomonas aeruginosa assessed as growth inhibition at 50 ug/mL after 24 to 48 hr by cup-plate method; details: read-out: DIZ
Bacillus subtilis [20] = assay: Antibacterial activity against Bacillus subtilis assessed as growth inhibition at 100 ug/mL after 24 to 48 hr by cup-plate method; details: read-out: DIZ
Mus musculus [21] = assay: Analgesic activity in Swiss albino Mus musculus (mouse) assessed as latency time of heat-induced paw licking/jumping behaviour at 10 mg/kg after 0.5 hr by Eddy's hot plate method (reference value: 4.17 +/- 0.04 secs)

Row | SMILES | zone of inhibition at 50 µg/mL (Aspergillus niger [1]) [mm] | Time (Mus musculus [2]) [s] | zone of inhibition at 100 µg/mL (Candida albicans [3]) [mm] | zone of inhibition at 100 µg/mL (Escherichia coli [4]) [mm] | Time (Mus musculus [5]) [s] | zone of inhibition at 50 µg/mL (Staphylococcus aureus [6]) [mm] | Time (Mus musculus [7]) [s] | zone of inhibition at 100 µg/mL (Staphylococcus aureus [8]) [mm] | inhibition in vivo at 10 mg/kg (Rattus norvegicus [9]) [%] | inhibition in vivo at 10 mg/kg (Rattus norvegicus [10]) [%] | zone of inhibition at 50 µg/mL (Candida albicans [11]) [mm] | inhibition in vivo at 10 mg/kg (Rattus norvegicus [12]) [%] | zone of inhibition at 50 µg/mL (Escherichia coli [13]) [mm] | inhibition in vivo at 10 mg/kg (Rattus norvegicus [14]) [%] | zone of inhibition at 50 µg/mL (Bacillus subtilis [15]) [mm] | zone of inhibition at 100 µg/mL (Aspergillus niger [16]) [mm] | inhibition in vivo at 10 mg/kg (Rattus norvegicus [17]) [%] | zone of inhibition at 100 µg/mL (Pseudomonas aeruginosa [18]) [mm] | zone of inhibition at 50 µg/mL (Pseudomonas aeruginosa [19]) [mm] | zone of inhibition at 100 µg/mL (Bacillus subtilis [20]) [mm] | further results
1 | COc1ccc(F)cc1-c1cccc(-c2nn(CCOS(=O)(=O)c3ccc(F)c(Cl)c3)c(=O)o2)c1 | 9 | 5.87 | 7 | 19 | 5.47 | 13 | 4.69 | 20 | 55 | 23 | 8 | 62 | 13 | 42 | 20 | 11 | 65 | 18 | 17 | 22 | Time (Mus musculus [21]): 4.62 s
2 | COc1ccc(F)cc1-c1cccc(-c2n[nH]c(=O)o2)c1 | 15 | 7.41 | 21 | 14 | 6.35 | 9 | 4.74 | 13 | 49 | 25 | 12 | 56 | 8 | 41 | 8 | 28 | 71 | 13 | 10 | 12 | Time (Mus musculus [21]): 4.22 s
3 | COC(=O)CCCn1nc(-c2cccc(-c3cc(F)ccc3OC)c2)oc1=O | 11 | 7.81 | 17 | 18 | 7.28 | 11 | 5.84 | 18 | 61 | 31 | 11 | 74 | 10 | 45 | 10 | 16 | 87 | 14 | 11 | 13 | Time (Mus musculus [21]): 5.51 s
